The OPERA property sets (Mansouri et al. 2018)
Values after ≈ are worked out from the molar mass of the structure shown.

Details: not given

Row | logP | Structure (SMILES)
1 | 2.73 | CCCCCCl

Same assay, conditions: 25 °C

Row | solubility [mM] | Structure (SMILES)
2 | 407 (≈ 41500 µg/mL) | CC(C)C(C)(C)O
3 | 1050 (≈ 90000 µg/mL) | C=CC(O)CC (stereo unspecified)
4 | 91.1 (≈ 15100 µg/mL) | COc1ccc(NC(C)=O)cc1
5 | 155 (≈ 15500 µg/mL) | CCC(=O)C(C)C
6 | 17 (≈ 2210 µg/mL) | CCCCC(=O)OCC
7 | 0.068 (≈ 8.45 µg/mL) | C#CCCCCCCC
8 | 51.2 (≈ 5950 µg/mL) | CCC(=O)OC(C)C
9 | 4.36 (≈ 629 µg/mL) | CCCCCC(=O)OCC
10 | 1.02 (≈ 250 µg/mL) | CCOC(=O)CCCCCCCC(=O)OCC
11 | 0.0793 (≈ 15.9 µg/mL) | CCCCCCCCCC(=O)OCC
12 | 0.288 (≈ 68.6 µg/mL) | Clc1cccc(I)c1
13 | 3.08 (≈ 445 µg/mL) | CCC(C)C(O)C(C)CC (stereo unspecified)
14 | 1.83 (≈ 290 µg/mL) | CCCCCCC(=O)OCC
15 | 1.75 (≈ 337 µg/mL) | CCCCOC(=O)c1ccc(N)cc1
16 | 29.3 (≈ 3400 µg/mL) | CC(C)CCOC=O
17 | 113 (≈ 13200 µg/mL) | CC(C)CC(C)(C)O
18 | 2.18 (≈ 315 µg/mL) | CCCCCC[C@@H](O)CC
19 | 45.6 (≈ 5300 µg/mL) | CCCOC(=O)CC

Row | solubility [mM] | Structure (SMILES)
20 | 0.158 (≈ 29.5 µg/mL) | CCCCCCCCC(=O)OCC
21 | 135 (≈ 15700 µg/mL) | CCC(C)C(C)(C)O (stereo unspecified)
22 | 10.9 (≈ 1250 µg/mL) | CCCCCCC=O
23 | 99.9 (≈ 10200 µg/mL) | CC(C)COC=O
24 | 173 (≈ 15200 µg/mL) | CCCOCC
25 | 9.4 (≈ 2030 µg/mL) | CCOC(=O)CCCCCC(=O)OCC
26 | 3.96 (≈ 504 µg/mL) | CCCC(Cl)Cl
27 | 102 (≈ 9010 µg/mL) | CCCCOC
28 | 10.3 (≈ 580 µg/mL) | C/C=C\C
29 | 0.0286 (≈ 9.43 µg/mL) | Ic1cccc(I)c1
30 | 0.407 (≈ 70.1 µg/mL) | CCCCCCCC(=O)OCC
31 | 25.1 (≈ 2910 µg/mL) | CC(C)CC(C)CO (stereo unspecified)
32 | 278 (≈ 24500 µg/mL) | CCOC(C)C
33 | 53.6 (≈ 6980 µg/mL) | CCC(C)(O)C(C)(C)C (stereo unspecified)
34 | 1.15 (≈ 197 µg/mL) | CCCCCCCCCC(C)O (stereo unspecified)
35 | 0.383 (≈ 73.4 µg/mL) | Clc1ccccc1Br
36 | 0.291 (≈ 69.4 µg/mL) | Clc1ccccc1I
37 | 2.95 (≈ 679 µg/mL) | CCOC(=O)CCCCCCC(=O)OCC

Row | Structure (SMILES) | solubility [mM]
38 | Brc1ccc(Br)c(Br)c1 | 0.0222 (≈ 7 µg/mL)
39 | FC(F)(F)CCl | 77.7 (≈ 9200 µg/mL)
40 | C=COC=C | 77.6 (≈ 5440 µg/mL)

Same assay, conditions: 27 °C

Row | solubility [mM] | Structure (SMILES)
41 | 0.0591 (≈ 19.5 µg/mL) | Ic1ccccc1I
